Measurements taken from patent US20200323950A1, “ANTIBACTERIAL PEPTIDES AND COMBINATIONS FOR CO-THERAPY” (priority 2017, published 2020).
Where “and” joins values, the source holds several entries; their conditions need not be identical. Identical values can stand only once. *1 amine or outer side, *2 acyl side, *3 side chain or, on linkers, in order; H or OH if unused. Where a SMILES comes first, the peptide text is derived from it. Bridges are numbered along the chain shown (N, C = ends). Roman numbers before positions name the chains, in order. Where no end group is shown, it is not given here. [ ]: non-standard residue; d: D form. The star is where a group is joined. X2 = O=C1NC(=O)C(SC[C@@H](CO)N[*:2])=C1SC[C@@H](CO)N[*:1]; BMH = O=C1CC([*:1])C(=O)N1CCCCCCN1C(=O)CC([*:2])C1=O; Maleimide(3,4-diyl) = O=C1NC(=O)C([*:2])=C1[*:1]; pXylylene = c1cc(C[*:2])ccc1C[*:1]; aThr = C[C@H](O)[C@H](N)C(=O)O; Ac6c = NC1(C(=O)O)CCCCC1; X1 = C(=C\C[*:2])/C[*:1]; Dab = NCC[C@H](N)C(=O)O; Nva = CCC[C@H](N)C(=O)O; NHNH2 = NN*

What was measured:
P. aeruginosa ATCC 47085 = test: Antibacterial assay (MIC); type: cell-based; conditions: P. aeruginosa ATCC 47085, MHB, 37° C.
Experimental: (§1) Antibacterial assay. Antibacterial assays are undertaken to determine the minimal inhibitory concentrations (MIC) as described previouslyl^6.
(§2) Antibacterial activity. Each C-terminal modified PrAMP DTM-linked tetramer is assayed against nosocomial Gram-negative bacteria, including E. coli ATCC 29222, K. pneumoniae ATCC 13883, A. baumannii ATCC 19606 and P. aeruginosa ATCC 47085.

K. pneumoniae ATCC 13883 = test: Antibacterial assay (MIC); type: cell-based; conditions: K. pneumoniae ATCC 13883, MHB, 37° C.
Experimental: as §1, §2

E. coli ATCC 29222 = test: Antibacterial assay (MIC); type: cell-based; conditions: E. coli ATCC 29222, MHB, 37° C.
Experimental: as §1, §2

A. baumannii ATCC 19606 = test: Antibacterial assay (MIC); type: cell-based; conditions: A. baumannii ATCC 19606, MHB, 37° C.
Experimental: as §1, §2

K. pneumoniae K97/09 [1] = test: Bacteremia Synergy Assay 1 (mouse systemic infection); type: in vivo; conditions: 10 mg/kg sc (Group 4), monotherapy
Experimental: (§3) In vivo Studies. Animals. Assays 1-2. NMRI (Naval Medical Research Institute) BR or CD-1 mice (Toxi-Coop Zrt, Budapest, Hungary) were housed in plastic type 2 cages, 3-5 mice per cage, on softwood granules as bedding. The room was kept between 21° C. and 25° C. with 12 h light:12 h dark cycles. The animals had free access to tap water and pelleted rodent food. Upon completion of the experiments, surviving mice were euthanized by diethyl ether inhalation. Animals were maintained and handled in accordance with the recommendations of the Guidelines for the Care and Use of Laboratory Animals, and the protocols were approved by the Animal Care Committee of Semmelweis University. The planned 15 treatment groups of mice were divided roughly equally into two assays with 8 and 7 treatment groups and untreated controls in each assay for safe and humane handling of large numbers of mice.
(§4) Infection models. NMRI mice weighing approximately 20 g (4 weeks old) were infected by intraperitoneal (ip) injection of 4×10^8 CFU/g K. pneumoniae K97/09. Mice were randomly allocated to 8 and […] groups (5 mice per group).
Bacteremia Synergy Assay 1.
Group 1: phosphate buffered saline (PBS) subcutaneously (sc) 1 h after infection. Group 2: imipenem 30 mg/kg sc at 2, 14 and 26 h after infection. […]
Survival was recorded hourly 24-36 h after infection. […]

[2] = tested on: multidrug-resistant Klebsiella pneumoniae K97/09; conditions: K. pneumoniae K97/09, compound alone
K. pneumoniae K97/09 [3] = test: Bacteremia Synergy Assay 2 (mouse systemic infection); type: in vivo
Experimental: as §3, §4
Bacteremia SYNERGY ASSAY 2.
Group 1: PBS sc 1 h after infection. Group 2: Colistin 1 mg/kg sc at 2 and 13 h after infection. Group 3: A3-APO 1 mg/kg im 1 and 12 h after infection. Group 4: A3-APO 1 mg/kg im 1 and 12 h after infection, colistin 1 mg/kg sc at 2 and 13 h after infection. […]

K. pneumoniae = test: Synergy results for co-administration of A3-APO (ARV-1501); type: cell-based
Experimental: Restoring antibiotic sensitivity to resistant bacteria. A colistin-resistant, carbapenem-resistant strain of K. pneumonia (K97/09) from a clinical isolate was used to test the effect of A3-APO treatment on antibiotic resistance. An in vitro assay measuring visible bacterial growth in the presence of A3-APO and imipenem or colistin was performed.
Synergy Results for Co-administration of A3-APO (ARV-1501)

[4] = tested on: multidrug-resistant Acinetobacter baumannii BAA-1605; conditions: A. baumannii BAA-1605, compound alone
[5] = tested on: Klebsiella pneumoniae K97/09; test: Checkerboard synergy assay (FIC index); type: cell-based; conditions: K. pneumoniae K97/09
Experimental: In vitro activity and synergy. Minimal inhibitory concentration (MIC) assays were performed using sterile 96-well polypropylene plates in a final volume of […]. Briefly, 50 μL of midlogarithmic phase bacterial cultures were diluted to 5×10^5 CFU/mL in Mueller-Hinton broth (MHB) and then added to 50 μL of the serially diluted antibiotic. The highest A3-APO and other test compound concentration evaluated was 256 mg/L. Cultures were incubated at 37° C. for 16-20 h without shaking. MICs were identified as the lowest antimicrobial concentrations at which turbidity was not observed. Antimicrobial synergy was determined by evaluating the fractional inhibitory concentration (FIC) index and was characterized by a conventional checkerboard assay (Fernandez-Cuenca et al., 2003). Bacteria grown to mid-logarithmic phase in MHB were pre-incubated with serially diluted concentrations of peptides such as A3-APO, and the antimicrobial controls, imipenem, colistin or meropenem.
The sum of the FICs (Σ FIC) was calculated with the equation Σ FIC=FICA+FICB=(CA/MICA)+(CB/MICB), where MICA and MICB are the MICs of antimicrobial A and B alone, respectively, and CA and CB are the concentrations of the drugs when combined, respectively. Synergy was defined as a Σ FICs≤0.5 and additive activity was defined as a Σ FICs>0.5≤1.0.

[6] = tested on: Acinetobacter baumannii BAA-1605; type: cell-based; conditions: A. baumannii BAA-1605
Experimental: In vitro activity and synergy. Minimal inhibitory concentration (MIC) assays were performed using sterile 96-well polypropylene plates in a final volume of 100 mL. Briefly, 50 μL of midlogarithmic phase bacterial cultures were diluted to 5×10^5 CFU/mL in Mueller-Hinton broth (MHB) and then added to 50 μL of the serially diluted antibiotic. […] MICs were identified as the lowest antimicrobial concentrations at which turbidity was not observed. Antimicrobial synergy was determined by evaluating the fractional inhibitory concentration (FIC) index and was characterized by a conventional checkerboard assay (Fernandez-Cuenca et al., 2003).

H. influenzae = test: Synergy results for co-administration of A3-APO (ARV-1501); type: cell-based; conditions: antibiotic co-administered with A3-APO (ARV-1501)
E. coli = test: as above; type: cell-based; conditions: antibiotic co-administered with A3-APO (ARV-1501)

## I: H-[Ac6c]RPDKPRPYLPRPRPPRPVR[Dab]-NHNH2 / II: H-[Ac6c]RPDKPRPYLPRPRPPRPVR (amide I:21-II:C) [dimer-NHNH2]
P. aeruginosa ATCC 47085
  Antibacterial activity, MIC: 3.01 ± 0.18 µM
K. pneumoniae ATCC 13883
  Antibacterial activity, MIC: 3.63 ± 0.02 µM
E. coli ATCC 29222
  Antibacterial activity, MIC: 2.99 ± 1.00 µM
A. baumannii ATCC 19606
  Antibacterial activity, MIC: 5.31 ± 0.73 µM

## I: [Ac6c]RPDKPRPYLPRPRPPRPVR[Dab] / II: [Ac6c]RPDKPRPYLPRPRPPRPVR[Dab] / III: [Ac6c]RPDKPRPYLPRPRPPRPVR / IV: [Ac6c]RPDKPRPYLPRPRPPRPVR (amide I:21-III:C, II:21-IV:C; linker I:C-II:C via X2) [tetramer-DTM-ol]
P. aeruginosa ATCC 47085
  Antibacterial activity, MIC: 1.86 ± 0.07 µM
K. pneumoniae ATCC 13883
  Antibacterial activity, MIC: 2.20 ± 0.01 µM
E. coli ATCC 29222
  Antibacterial activity, MIC: 3.67 ± 0.25 µM
A. baumannii ATCC 19606
  Antibacterial activity, MIC: 11.61 ± 1.44 µM

## colistin
K. pneumoniae K97/09 [1]
  survival: 60%
[2]
  MIC: 64 µg/mL
K. pneumoniae K97/09 [3]; colistin 1 mg/kg sc (Group 2), after 6 h
  reduction of the bacterial burden: < 1 log 10 unit
K. pneumoniae K97/09 [3]; colistin 1 mg/kg sc twice (Group 2), monotherapy
  survival at 36 h: 40%
K. pneumoniae; antibiotic without A3-APO
  MIC of the antibiotic before co-administration (decrease from): > 64
K. pneumoniae; co-administered with A3-APO (ARV-1501)
  MIC of the antibiotic on co-administration (decrease to): 1
[4]
  MIC: < 0.5 µg/mL

## I: [Ac6c]RPDKPRPYLPRPRPPRPVR[Dab]C-NHNH2 / II: [Ac6c]RPDKPRPYLPRPRPPRPVR[Dab]C-NHNH2 / III: [Ac6c]RPDKPRPYLPRPRPPRPVR / IV: [Ac6c]RPDKPRPYLPRPRPPRPVR (amide I:21-III:C, II:21-IV:C; linker I:22-II:22 via BMH) [tetramer-bismal-NHNH2]
P. aeruginosa ATCC 47085
  Antibacterial activity, MIC: 1.62 ± 0.11 µM
K. pneumoniae ATCC 13883
  Antibacterial activity, MIC: 3.18 ± 0.03 µM
E. coli ATCC 29222
  Antibacterial activity, MIC: 3.93 ± 0.04 µM
A. baumannii ATCC 19606
  Antibacterial activity, MIC: 10.35 ± 0.22 µM

## CCC[C@H](NC(=O)[C@H](CCC(=O)O)NC(=O)[C@@H](N)[C@H](C)O)C(=O)N[C@H](C(=O)N[C@@H](C)C(=O)N[C@@H](CC(C)C)C(=O)N[C@@H](CO)C(=O)N[C@@H](CCCNC(=N)N)C(=O)NC1(C(N)=O)CCCCC1)C(C)C [Allo-aca] (H-[aThr]E[Nva]VALSR[Ac6c]-NH2; N-terminus and C-terminus assumed)
[5]
  improvement in the MIC values when added together with imipenem or colistin: failed to exert any improvement
[6]
  improvement in the MIC values when added together with imipenem or colistin: failed to exert any improvement

## O=C(N[C@H](CO)[C@H](O)c1ccc([N+](=O)[O-])cc1)C(Cl)Cl [chloramphenicol]
H. influenzae
  Outcome: MIC lowered with priming
E. coli
  Outcome: MIC lowered with priming
K. pneumoniae; antibiotic co-administered with A3-APO (ARV-1501)
  Outcome: MIC lowered with priming

## I: [Ac6c]RPDKPRPYLPRPRPPRPVR[Dab]C-NHNH2 / II: [Ac6c]RPDKPRPYLPRPRPPRPVR[Dab]C-NHNH2 / III: [Ac6c]RPDKPRPYLPRPRPPRPVR / IV: [Ac6c]RPDKPRPYLPRPRPPRPVR (amide I:21-III:C, II:21-IV:C; linker I:22-II:22 via X1) [tetramer-butene-NHNH2]
P. aeruginosa ATCC 47085
  Antibacterial activity, MIC: 0.77 ± 0.02 µM
K. pneumoniae ATCC 13883
  Antibacterial activity, MIC: 0.81 ± 0.02 µM
E. coli ATCC 29222
  Antibacterial activity, MIC: 0.94 ± 0.04 µM
A. baumannii ATCC 19606
  Antibacterial activity, MIC: 1.89 ± 0.63 µM

## I: H-[Ac6c]RPDKPRPYLPRPRPPRPVR[Dab]-NH2 / II: H-[Ac6c]RPDKPRPYLPRPRPPRPVR (amide I:21-II:C) [A3-APO, (H-Chex-Arg-Pro-Asp-Lys-Pro-Arg-Pro-Tyr-Leu-Pro-Arg-Pro-Arg-Pro-Pro-Arg-Pro-Val-Arg)2-Dab]
[2]
  MIC: 32 to 64 µg/mL and 32 µg/mL
[4]
  MIC: 32 µg/mL
P. aeruginosa ATCC 47085
  Antibacterial activity, MIC: 3.13 ± 0.05 µM
K. pneumoniae ATCC 13883
  Antibacterial activity, MIC: 1.44 ± 0.12 µM
E. coli ATCC 29222
  Antibacterial activity, MIC: 2.58 ± 1.14 µM
A. baumannii ATCC 19606
  Antibacterial activity, MIC: 8.00 ± 1.09 µM

## I: H-[Ac6c]RPDKPRPYLPRPRPPRPVR[Dab]C-NH2 / II: H-[Ac6c]RPDKPRPYLPRPRPPRPVR[Dab]C-NH2 / III: H-[Ac6c]RPDKPRPYLPRPRPPRPVR / IV: H-[Ac6c]RPDKPRPYLPRPRPPRPVR (amide I:21-III:C, II:21-IV:C; linker I:22-II:22 via Maleimide(3,4-diyl)) [tetramer-DTM-NH2]
P. aeruginosa ATCC 47085
  Antibacterial activity, MIC: 2.05 ± 0.08 µM
K. pneumoniae ATCC 13883
  Antibacterial activity, MIC: 2.33 ± 0.01 µM
E. coli ATCC 29222
  Antibacterial activity, MIC: 2.96 ± 0.99 µM
A. baumannii ATCC 19606
  Antibacterial activity, MIC: 13.29 ± 0.10 µM

## I: [Ac6c]RPDKPRPYLPRPRPPRPVR[Dab]C-NHNH2 / II: [Ac6c]RPDKPRPYLPRPRPPRPVR[Dab]C-NHNH2 / III: [Ac6c]RPDKPRPYLPRPRPPRPVR / IV: [Ac6c]RPDKPRPYLPRPRPPRPVR (amide I:21-III:C, II:21-IV:C; linker I:22-II:22 via pXylylene) [tetramer-xylene-NHNH2]
P. aeruginosa ATCC 47085
  Antibacterial activity, MIC: 1.51 ± 0.33 µM
K. pneumoniae ATCC 13883
  Antibacterial activity, MIC: 4.49 ± 0.56 µM
E. coli ATCC 29222
  Antibacterial activity, MIC: 6.24 ± 0.53 µM
A. baumannii ATCC 19606
  Antibacterial activity, MIC: 12.70 ± 0.96 µM

## CC1(C)S[C@@H]2[C@H](NC(=O)[C@H](N)c3ccc(O)cc3)C(=O)N2[C@H]1C(=O)O [amoxicillin]
H. influenzae
  Outcome: MIC lowered with priming
E. coli
  Outcome: reversal of TEM-1 related
